# Reference: patent US10111900B2, “β-glucan methods and compositions that affect the tumor microenvironment” (Biothera, Inc., priority 2014, dated 2018)
# “Also recorded” adds a separate entry of the source.
# Legend:
# M2 macrophages = assay: Mac-CD4 T co-culture, surface marker modulation on macrophages; assay type: cell-based, human; conditions: relative to vehicle-treated M2 macrophages
# Protocol: (§1) For evaluation of Mac-CD4 T cell surface marker modulation, M2 macrophages were co-cultured with T cells as described above and cells were harvested on day 8, day 9 and day 10 to perform surface receptor staining on both M2 macrophages and T cells.
# (§2) Changes in surface marker expression on both macrophages and CD3 & CD28-stimulated T cells were also measured. Vehicle- and β-glucan-treated M2 macrophages and CD T cells from the co-cultures were evaluated by flow cytometry for the modulation of co-stimulatory or co-inhibitory molecules. FIG. 8C and Table 9 are representative results from 2 different experiments.
# CD4 T cells [1] = assay: Mac-CD4 T co-culture, surface marker modulation on T cells; assay type: cell-based, human; conditions: T cells co-cultured with β-glucan-treated vs vehicle-treated M2 macrophages
# Protocol: as §1, §2
# CD4 T cells [2] = assay: Mac-CD4 T cell proliferation assay (CFSE dilution); assay type: cell-based, human
# IFN-γ = IFN-γ in supernatants of macrophage and CD4 T cell co-cultures (ELISA); assay type: cell-based, human
# Protocol: CD14^+ monocytes from human whole blood were enriched using Ficoll gradient and magnetic bead separation. Enriched monocytes (5×10^5 cells per mL) were then cultured in either M1-polarizing (XVivo 10 media (Lonza Group) supplemented with 5% autologous serum and 100 ng/mL recombinant human granulocyte macrophage colony-stimulating factor (rhGM-CSF) (R&D Systems) or M2-polarizing (XVivo 10 media supplemented with 10% autologous serum and 50 ng/mL recombinant human macrophage colony-stimulating factor (rhM-CSF) (R&D Systems) conditions for 6 days. In experiments performed to evaluate the effect of β-glucan, whole blood was first incubated with vehicle (sodium citrate buffer) or 25 μg/mL soluble β-glucan for 2 hours at 37° C. and then the monocytes were isolated and differentiated. Morphology was checked before macrophages were harvested for phenotypic analysis. Culture medium of the day 6 macrophage culture (MCM) was collected, spun down to remove contaminated cell pellet and then frozen down for subsequent cytokine analysis by ELISA or used to setup a co-culture with CD3 & CD28-stimulated CD4 T cells (MCM-CD4 T) for evaluation of either surface markers or CD4 T cell proliferation. The macrophages were used to setup a co-culture with CD3 & CD28- or CD3 only-stimulated CD4 T cells (Mac-CD4 T) on day 6 for evaluation of either surface marker modulation or effect on CD4 T cell proliferation. For Mac-CD4 T cell proliferation study, M1 or M2 macrophages were cultured with CD3 & CD28- or CD3 only-stimulated, CFSE-labeled, autologous CD4 T cells at a 1:10 ratio. T cell proliferation was measured at the end of the experiment (day 9-day 11) by flow cytometry, and results are graphically shown as CFSE-dilution peaks. The assessment of CD3-only stimulated T cells was always done on day 11. Quantitative results were reported as the Division Index (the average number of cell divisions a population underwent) calculated for each of the triplicate wells in each of the culture conditions. Culture supernatants of Mac-CD4 T cell co-cultures were collected for subsequent cytokine analysis.
# The culture supernatants from the CFSE dilution T-cell proliferation assay (FIG. 2B) were also measured for IFN-gamma levels by ELISA. […] Thus, β-glucan affects M2 to M1 repolarization and drives anti-tumorigenic Th1 polarization.
# M2 macrophages from 4 high binders and 4 low binders were prepared and evaluated for their ability to modulate CD4 T cell proliferation. The supernatants from the various CD4 T cell proliferation conditions were measured for IFN-γ by ELISA. Results shown in FIG. 10 are representative from 4 different experiments. Fold change over the IFN-γ levels produced in the co-cultures of vehicle-treated M2 macrophages and CD4 T cells are plotted for each of the 4 donors.
# IL-4 = IL-4 in supernatants of macrophage and CD4 T cell co-cultures; assay type: cell-based, human; conditions: M2 macrophage and CD4 T cell co-cultures
# Protocol: CD14^+ monocytes from human whole blood were enriched using Ficoll gradient and magnetic bead separation. Enriched monocytes (5×10^5 cells per mL) were then cultured in either M1-polarizing (XVivo 10 media (Lonza Group) supplemented with 5% autologous serum and 100 ng/mL recombinant human granulocyte macrophage colony-stimulating factor (rhGM-CSF) (R&D Systems) or M2-polarizing (XVivo 10 media supplemented with 10% autologous serum and 50 ng/mL recombinant human macrophage colony-stimulating factor (rhM-CSF) (R&D Systems) conditions for 6 days. In experiments performed to evaluate the effect of β-glucan, whole blood was first incubated with vehicle (sodium citrate buffer) or 25 μg/mL soluble β-glucan for 2 hours at 37° C. and then the monocytes were isolated and differentiated. Morphology was checked before macrophages were harvested for phenotypic analysis. […] T cell proliferation was measured at the end of the experiment (day 9-day 11) by flow cytometry, and results are graphically shown as CFSE-dilution peaks. […] Quantitative results were reported as the Division Index (the average number of cell divisions a population underwent) calculated for each of the triplicate wells in each of the culture conditions. […]
# Modulation of IFN-γ and IL-4 production of vehicle- and β-glucan-treated M2 macrophages was then evaluated. […]
# Tregs = assay: Treg suppression assay; assay type: cell-based, human
# Protocol: Since these PBMC cultures contain Tregs, the suppressive ability of Tregs seem to be altered in the presence of soluble β-glucan and studies were carried out to determine if β-glucan affected Treg suppression. Plasma from β-glucan-treated or vehicle-treated whole blood (described above) was added to 25,000 isolated CFSE-labeled autologous CD4 T cells (CD4^+CD25^−) along with increasing numbers of isolated autologous Tregs (CD4^+CD25^+) resulting in wells with increasing ratios. Cells were then stimulated with 50,000 T cell activating CD3/28 beads for 3 days. Proliferation was subsequently measured by CFSE dilution and quantified by Division Index, which was used to calculate the % suppression of Tregs in the co-culture. % suppression=100-(Division Index of Treg well/Division Index of 1:0 well)[…].
# The Treg suppression assay was conducted as described above, and after 3 days of co-culture, supernatants were analyzed for IFN-gamma production.
# CD4 and CD8 T cells = assay: Allogeneic mixed lymphocyte reaction with mMoDC; assay type: cell-based, human; conditions: β-glucan-treated mMoDC from high binders
# Monocytes = assay: Binding of β-glucan to monocytes in whole blood (serum cross-over); assay type: cell-based, human; conditions: low binder's whole blood with high binder's serum (higher ABA)
# Protocol: To test this, M2 macrophages were prepared as described above with a few modifications. The whole blood of a low binder was spun down to remove the plasma and then the cells were reconstituted with serum obtained from a high binder. The reconstituted blood was treated with vehicle or β-glucan (25 μg/mL) for 2 hours at 37° C. The monocytes were evaluated for binding by using anti-β-glucan specific monoclonal antibody and subsequent flow cytometry.
# CD33+ MDSC = assay: MDSC in peripheral blood of a case study subject treated with IMPRIME PGG; assay type: in vivo, human; conditions: within hours post-infusion, cycle 8, day 1
# From the text: Blood was drawn at various times from a case study subject undergoing treatment with IMPRIME PGG and analyzed for the presence of MDSC. The first blood draw was done pre-infusion, cycle 8, day 1. […] A second blood draw was done post-infusion, cycle 8, day 1. […] The last blood sample was drawn pre-infusion, cycle 8, day 15. The CD33^+ MDSC are again present in the peripheral blood.
substance,measurement,setting,value
"β(1,6)-[poly-(1,3)-D-glucopyranosyl]-poly-β(1,3)-D-glucopyranose [β-glucan]",Change in MFI on Macrophages: 4-1BBL,M2 macrophages,No change
same,Change in MFI on Macrophages: CD40,M2 macrophages,No change
same,Change in MFI on Macrophages: CD80,M2 macrophages,No change
same,Change in MFI on Macrophages: CD172,M2 macrophages,No change
same,Change in MFI on Macrophages: CD209,M2 macrophages,No change
same,Change in MFI on Macrophages: OX40,M2 macrophages,No change
same,Change in MFI on Macrophages: HLA-DR,M2 macrophages; co-culture with CD3 & CD28-stimulated T cells,No change
same,Change in MFI on Macrophages: CD86,M2 macrophages; day 8,relative increase
same,Change in MFI on Macrophages: PD-L1 (CD274),M2 macrophages; day 9,relative increase
same,Change in MFI on T cells: 4-1BB,CD4 T cells [1],No change
same,Change in MFI on T cells: CD28,CD4 T cells [1],No change
same,Change in MFI on T cells: CD40L,CD4 T cells [1],No change
same,Change in MFI on T cells: CTLA-4,CD4 T cells [1],No change
same,Change in MFI on T cells: PD1 (CD279),CD4 T cells [1]; day 9,Increased expression; also recorded: Increase
same,CD4 T cell proliferation,"CD4 T cells [2]; M1 macrophages, high binders or low binders, vs vehicle",no differences
same,CD4 T cell proliferation,"CD4 T cells [2]; M2 macrophages cultured in TCM and M2a macrophages cultured in IL-4, vs vehicle",maintained the ability to enhance
same,CD4 T cell proliferation,"CD4 T cells [2]; M2 macrophages, absence of exogenous CD28 antibody (CD3 only)",significantly higher ability to enhance
same,CD4 T cell proliferation,"CD4 T cells [2]; M2 macrophages, high binders, CD3 & CD28-stimulated, vs vehicle",significantly higher ability to enhance
same,CD4 T cell proliferation,"CD4 T cells [2]; M2 macrophages, low binders, vs vehicle",neither enhanced CD4 T cell proliferation; also recorded: no enhanced proliferation
same,CD4 T cell proliferation,"CD4 T cells [2]; co-culture with β-glucan-treated M2 macrophages, CD3 and CD28-stimulated",enhance CD4 T cell proliferation
same,production of IFN-γ,IFN-γ; M2 in TCM / M2a in IL-4 co-cultured with CD4 T cells,significantly increased production
same,production of IFN-γ,"IFN-γ; M2 macrophage and CD4 T cell co-cultures, high binders",significantly increased production
same,production of IFN-γ,"IFN-γ; M2 macrophages and CD4 T cells, cell-to-cell contact study",significantly increased production
same,production of IFN-γ,IFN-γ; low binder crossed-over with high binder's serum,significantly increased production
same,IFN-gamma production,IFN-γ; supernatants of M2 macrophage and CD4 T cell co-culture,concomitant increase
same,production of IL-4,IL-4,no change
same,IFN-gamma production,"Tregs; Treg suppression assay, 3 days, 8:1 T cell to Treg ratio",enhanced IFN-gamma production
same,suppressive capacity of Tregs,Tregs; plasma from β-glucan-treated vs vehicle-treated whole blood,significant decreases
same,immunogenicity in allo-MLR (CD4 and CD8 T cell expansion),CD4 and CD8 T cells; over low binders,increased immunogenicity
same,IFN-γ production,CD4 and CD8 T cells; over low binders and vehicle,able to modulate IFN-γ production
same,binding of β-glucan to monocytes,Monocytes,significantly higher binding
same,CD33+ MDSC in peripheral blood,CD33+ MDSC,transiently disappear
